ChEMBL document CHEMBL1124120, “Mapping of the beta 2-adrenoceptor on Chang liver cells. Differences between high- and low-affinity receptor states” (J Med Chem, 1988)

Assays:
[1] = target: Beta-2 adrenergic receptor (Bos taurus) (UniProt Q28044); settings: Muscle tissue
Description: Change in Gibb's free energy at Low affinity beta-2-adrenoceptor in the membranes of bovine skeletal muscle preparation

[2] = target: Beta-2 adrenergic receptor (Homo sapiens) (UniProt P07550)
Description: Change in Gibb's free energy at Low affinity beta-2-adrenoceptor in the Chang living cells

[3] = target: Beta-2 adrenergic receptor (Homo sapiens) (UniProt P07550); remark: listed apart in the source
Description: Change in Gibb's free energy at High affinity beta2- adrenoceptor in Chang living cells.

Chain of Beta-2 adrenergic receptor (Homo sapiens) (P07550 whole entry, looked up): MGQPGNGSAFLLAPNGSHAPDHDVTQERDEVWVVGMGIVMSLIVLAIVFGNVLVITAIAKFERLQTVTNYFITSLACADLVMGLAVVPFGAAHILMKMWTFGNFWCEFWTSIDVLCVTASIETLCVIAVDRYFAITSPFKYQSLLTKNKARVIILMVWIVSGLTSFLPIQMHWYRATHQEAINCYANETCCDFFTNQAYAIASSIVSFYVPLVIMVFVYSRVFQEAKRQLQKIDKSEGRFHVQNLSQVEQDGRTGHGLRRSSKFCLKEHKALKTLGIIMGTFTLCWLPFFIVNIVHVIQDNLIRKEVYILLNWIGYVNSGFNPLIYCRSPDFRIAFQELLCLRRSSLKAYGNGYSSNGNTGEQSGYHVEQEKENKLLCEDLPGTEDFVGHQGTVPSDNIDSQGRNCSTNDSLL
Chain of Beta-2 adrenergic receptor (Bos taurus) (Q28044 whole entry, looked up): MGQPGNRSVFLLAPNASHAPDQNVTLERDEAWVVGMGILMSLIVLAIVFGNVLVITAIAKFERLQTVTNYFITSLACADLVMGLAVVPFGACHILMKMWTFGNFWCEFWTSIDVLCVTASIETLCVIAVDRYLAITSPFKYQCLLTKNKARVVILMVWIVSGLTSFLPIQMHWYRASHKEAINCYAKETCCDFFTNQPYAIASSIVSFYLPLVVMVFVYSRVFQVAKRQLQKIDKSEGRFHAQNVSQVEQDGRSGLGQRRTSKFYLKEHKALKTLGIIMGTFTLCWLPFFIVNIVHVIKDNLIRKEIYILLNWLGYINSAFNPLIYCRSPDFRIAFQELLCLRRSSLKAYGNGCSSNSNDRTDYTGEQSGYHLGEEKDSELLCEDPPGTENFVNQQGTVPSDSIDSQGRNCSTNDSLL

Row | SMILES | -Delta G [1] | -Delta G [2] | -Delta G [3]
1 | Cc1cccc(OCC(O)CNC(C)C)c1 (racemic) | 10.9 | 11.4 | 
2 | CC(C)NCC(O)c1cccc(O)c1 (racemic) | 9 | 7.05 | 
3 | CC(C)(C)NCC(O)c1cc(Cl)c(O)c(Cl)c1 (racemic) | 10.5 | 11.1 | 
4 | C=CCc1ccccc1OCC(O)CNC(C)C (stereo not given) | 13.3 |  | 
5 | CC(C)NCC(O)c1ccc([N+](=O)[O-])cc1 (racemic) |  | 8.23 | 
6 | CC(C)NCC(O)c1cc(Cl)c(N)c(Cl)c1 (racemic) | 10.7 | 9.08 | 11.1
7 | CC(C)NCC(O)c1ccc(O)c(CO)c1 (racemic) |  | 7.41 | 9.6
8 | CC(C)NCC(O)c1cc(O)cc(O)c1 (racemic) |  | 7.19 | 10.7
9 | C=CCc1ccccc1OCC(O)CNCC(C)(C)N (stereo not given) |  | 9.54 | 
10 | CC(C)(C)NCC(O)c1cc(O)cc(O)c1 (racemic) | 8.13 |  | 
11 | CC(C)(C)NCC(O)c1ccc(O)c(C(N)=O)c1 (racemic) |  | 9.54 | 11.2
12 | CC(C)(C)NCC(O)c1ccc(O)c(N)c1 (racemic) | 8.5 | 7.73 | 9.69
13 | CNC[C@H](O)c1ccc(O)c(O)c1 |  | 6.92 | 10.1
14 | CC(C)NC[C@H](O)COc1ccc(O)cc1 (racemic) | 8.9 | 9.76 | 
15 | CC(C)(C)NCC(O)COc1cccc2[nH]c(C#N)c(I)c12 (racemic) |  | 15.2 | 
16 | CC(C)NCC(O)c1ccc(NS(C)(=O)=O)cc1 (racemic) | 9.32 |  | 
17 | CC(C)NCC(O)c1ccc(O)cc1 (racemic) |  |  | 9.76
18 | CCCc1ccccc1OCC(O)CNC(C)C (stereo not given) | 13.1 | 12.9 | 
19 | CC(Cc1ccc(O)cc1)NCC(O)c1cc(O)cc(O)c1 (racemic) |  | 8.28 | 
20 | CC(C)NCC(O)c1ccc2ccccc2c1 (racemic) | 10.1 |  | 
21 | CC(C)(C)NCC(O)c1cc(Cl)c(N)c(Cl)c1 (racemic) | 11 |  | 
22 | NC[C@H](O)c1ccc(O)c(O)c1 |  | 6 | 8.64
23 | CC(C)NCC(O)COc1cccc2[nH]ccc12 (stereo not given) |  | 12.8 | 
24 | CC(C)(C)NCC(O)c1ccc(O)c(CO)c1 (racemic) | 9.34 |  | 
25 | Cc1cc(C)cc(OCC(O)CNC(C)C)c1 (racemic) | 11.8 | 10.4 | 
26 | CC(C)(N)CNCC(O)COc1cccc2[nH]ccc12 (racemic) |  | 10.1 | 
27 | CC(C)(C)NCC(O)c1ccccc1Cl (stereo not given) |  | 9.17 | 
28 | CNc1cc(C(O)CNC(C)(C)C)ccc1O (racemic) |  | 9.39 | 10.5
29 | CC(C)NCC(O)c1ccc(O)c(N)c1 (racemic) | 7.93 | 7.17 | 9.13
30 | CC(C)(C)NCC(O)c1ccc(O)c(O)c1 (racemic) | 9.29 | 8.5 | 11.7
